Test results as given in US20220257569A1, “INDOLE-OXADIAZOLE COMPOUNDS AND THEIR THERAPEUTIC USE” (THE GOVERNING COUNCIL OF THE UNIVERSITY OF TORONTO, priority 2018, published 2022).

How the values were obtained:
[1] = Rat liver microsomal stability assay; type: in vitro ADME; details: pooled rat liver microsomes 0.5 mg/mL, 3 μM compound, NADPH, 37° C., 45 min
Description: Metabolic stability of indole-oxadiazole derivatives of Formula I was measured by determination of the rate of compound disappearance when incubated in the presence of human or rat liver microsomes. Liver microsomes are prepared from the endoplasmic reticulum of hepatocytes and are the primary source of the most important enzymes (cytochrome P450) involved in drug metabolism. Study of drug stability in the presence of liver microsomes is accepted as a valuable model permitting rapid prediction of in vivo drug stability.
Human and rat liver microsomes were obtained from commercial sources. Test compounds (3 μM) were incubated with pooled liver microsomes (male and female). Samples were incubated for a 45 minute period and removed at 5 time points and test compounds were analysed by LC-MS/MS.
Microsomes (final protein concentration 0.5 mg/mL), 0.1 M phosphate buffer pH 7.4, and test compound (final concentration 3 μM; diluted from 10 mM stock solution to give a final DMSO concentration of 0.25%) were incubated at 37° C. prior to the addition of NADPH (final concentration 1 mM) to initiate the reaction. The final incubation volume was 25 μL. A control incubation was included for each compound tested, where 0.1 M phosphate buffer pH 7.4 was added instead of NADPH. The control compounds testosterone and 7-hydroxycoumarin were included in each experiment and all incubations were performed singularly for each compound.
Each compound was incubated for 0, 5, 15, 30, and 45 minutes. The control (minus NADPH) was incubated for 45 minutes only. The reactions were stopped by the addition of 50 μL methanol containing internal standard at the appropriate time points. The incubation plates were centrifuged at 2500 rpm for 20 minutes at 4° C. to precipitate the protein.
Following protein precipitation, the sample supernatants were combined in cassettes of up to 4 compounds and analysed using standard LC-MS/MS conditions.
From a plot of the natural logarithm of the peak area ratio (i.e., the ratio of compound peak area:internal standard peak area) against time, the gradient of the line was determined. Subsequently, half-life and intrinsic clearance were calculated using the equations below:
Eliminated rate constant (k)=(−gradient).

[2] = molecular target: T1, cannabinoid CB1 receptor (Homo sapiens, UniProt P21554); test: PathHunter β-Arrestin assay (allosteric inhibition of agonist Emax); type: cell-based; details: FIG. 1; reduction in Emax not overcome by higher concentrations of agonist
T1 construct: host or cells: HEK293 CB1 β-arrestin cells
T1 sequence (P21554 whole entry): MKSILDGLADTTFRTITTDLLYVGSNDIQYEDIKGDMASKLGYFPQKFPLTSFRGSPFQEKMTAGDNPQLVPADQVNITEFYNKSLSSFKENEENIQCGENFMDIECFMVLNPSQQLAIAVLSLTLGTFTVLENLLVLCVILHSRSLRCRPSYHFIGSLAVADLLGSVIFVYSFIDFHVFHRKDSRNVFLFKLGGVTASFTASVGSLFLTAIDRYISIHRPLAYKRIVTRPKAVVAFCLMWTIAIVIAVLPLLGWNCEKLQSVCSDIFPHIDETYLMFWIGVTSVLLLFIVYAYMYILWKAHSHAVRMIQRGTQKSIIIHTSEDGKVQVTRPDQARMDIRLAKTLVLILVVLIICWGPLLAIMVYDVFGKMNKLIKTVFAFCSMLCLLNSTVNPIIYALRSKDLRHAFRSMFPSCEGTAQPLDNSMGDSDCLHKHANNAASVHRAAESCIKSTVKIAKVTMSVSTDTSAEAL
From the text: PathHunter™ enzyme fragment complementation is the most important method to measure β-arrestin recruitment. PathHunter™ β-Arrestin assays developed by DiscoveRX are revolutionary high-throughput screening assays for monitoring GPCR activation following ligand stimulation, without an imaging instrument, fluorescent protein tag, or radioactivity.
Instead, the assays detect GPCR activation through binding of β-arrestin to the expressed GPCR of interest, and measure the interaction of the two proteins using enzyme fragment complementation (EFC). The EFC approach offers a range of benefits for screening, including signal amplification and robust performance.
The larger portion of β-gal, termed EA for enzyme acceptor, is fused to the C-terminus of β-arrestin. The smaller, complementing fragment of β-gal, the ProLink™ tag, is expressed as a fusion protein with the GPCR of interest at the C-terminus. Upon activation, the GPCR is bound by β-arrestin. The interaction of β-arrestin and the GPCR forces the interaction of ProLink and EA, thus allowing complementation of the two fragments of β-gal and the formation of a functional enzyme capable of hydrolyzing substrate and generating a […] signal.
Using the PathHunter™ CB1 kit from DiscoveRX, a cannabinoid CB1 receptor agonist is added and activates the receptor, EA, which is fused to the C-terminus of β-arrestin, and then interacts with the ProLink™ tag which is fused to the CB1 receptor. This will result in the […] signal that is recorded by a luminescence plate reader. The […] signal is directly related to the activation of the receptor, therefore a higher concentration of agonist will yield a larger […] signal. The cannabinoid agonist is added in increasing concentrations to obtain an agonist dose response curve. With pre-incubation of a potential allosteric modulator, either an enhancement of agonist activity with an allosteric enhancer or a decrease in the maximal response of the agonist with an allosteric inhibitor is expected.
All raw data are obtained as luminescence (relative light units), and are normalised and presented as a percentage of the maximal response for the cannabinoid CB1 receptor agonist CP55,940 (2-[(1R,2R,5R)-5-hydroxy-2-(3-hydroxypropyl)cyclohexyl]-5-(2-methyloctan-2-yl)phenol).
The PathHunter™ β-Arrestin assay (from DiscoveRX, Fremont, USA) was performed as follows. HEK293 CB1 β-arrestin cells were plated 48 hours before use and incubated at 37° C., 5% CO2 in a humidified incubator. Test compounds were dissolved in dimethylsulfoxide (DMSO) and diluted in optimized cell culture (OCC, as supplied by DiscoveRX) media to the required concentrations. 5 μL of test compound or vehicle solution was added to each well and incubated for 60 minutes at 37° C., 5% CO2 in a humidified incubator. 5 μL of increasing concentrations of anandamide was added to each well followed by a 90-minute incubation at 37° C., 5% CO2 in a humidified incubator. 55 μL of detection reagent (as supplied by DiscoveRX) was then added, followed by a further 90 minute incubation at room temperature in the dark. Chemiluminescence, reported in relative light units (RLU—a dimensionless value, standardised as a % of maximum stimulation with anandamide), was measured on a standard luminescence plate reader.
Data were plotted as % of maximal stimulation (Emax) caused by agonist versus the logarithm of concentration of agonist, in the presence or absence of a fixed concentration of test compound (modulator) or vehicle. For example, stimulation in the presence of agonist alone will give a value for stimulation expressed in RLU, which can be expressed as a range from 0% (at lowest agonist concentration, e.g., 1 nM) to 100% (at the highest agonist concentration, e.g., 10 μM). […]

Microsomal stability T1/2 Rat [1]: 1.83 h
Compound: CCc1c(-c2nnc(Nc3ccccc3)o2)[nH]c2ccc(Cl)cc12 [ABM300, 5-(5-Chloro-3-ethyl-1H-indol-2-yl)-N-phenyl-1,3,4-oxadiazol-2-amine]
type of modulation [2]: allosteric inhibitor (negative allosteric modulator)
